From patent publication US8288145B2, “Medium supplement for virus production” (AVIR Green Hills Biotechnology, priority 2006, dated 2012)
Several values for one entry are separate records, joined by “and”; a condition that tells them apart may be missing. Equal entries are not always repeated.

Assays:
[1] = test system: Enzephalomyocarditis virus RNA; conditions: Borden E. et al. 1979, 1981; cited from earlier work
SV40 virus DNA = conditions: Borden E. et al. 1979, 1981; cited from earlier work
[2] = test system: A/Vienna/28/2006 (H3N2) (A/Wisconsin/67/2005-like); format: cell-based, influenza A virus
[3] = test system: A/New Caledonia/20/99 (H1N1); format: cell-based, influenza A virus
influenza B virus = format: cell-based
[4] = test system: A/Wisconsin/67/2005 (H3N2)-like virus; format: cell-based, influenza A virus
[5] = test system: B/Vienna/32/2006 (B/Malaysia/2506/2004-like); format: cell-based, influenza B
[6] = test system: A/New Caledonia/20/99 (H1N1)-like ΔNS1 virus; format: cell-based, influenza A virus

Row | SMILES | infectivity of viral RNA [1] | infectivity of viral DNA (SV40 virus DNA) | higher virus titre if grown in the presence of amphotericin B [2] | less virus obtained when no amphotericin B is added [3] | clinical samples positive for virus isolation (influenza B virus) | cytopathic effect of transfectant virus [4] | titre of transfectant virus [4] | titre of B virus in the presence of amphotericin B [5] | increase of sensitivity (titre) of TCID50 titration [6]
1 | COC(=O)[C@H]1[C@@H]2C[C@@H](O[C@@H]3O[C@H](C)[C@@H](O)[C@H](N)[C@@H]3O)/C=C/C=C/C=C/C=C/C=C/C=C/C=C/[C@H](C)[C@@H](O)[C@@H](C)[C@H](C)OC(=O)C[C@H](O)C[C@H](O)CC[C@@H](O)[C@H](O)C[C@H](O)C[C@](O)(C[C@@H]1O)O2 [Amphotericin B methyl ester] | increase the infectivity | increase the infectivity | – | – | – | – | – | – | –
2 | C[C@@H]1[C@H](O)[C@@H](C)/C=C/C=C/C=C/C=C/C=C/C=C/C=C/[C@H](O[C@@H]2O[C@H](C)[C@@H](O)[C@H](N)[C@@H]2O)C[C@@H]2O[C@](O)(C[C@@H](O)C[C@@H](O)[C@H](O)CC[C@@H](O)C[C@@H](O)CC(=O)O[C@H]1C)C[C@H](O)[C@H]2C(=O)O [amphotericin B] | – | – | ≥ 1 log | 1 log | 9 | clear cytopathic effect | 2E+04 TCID50/ml and 2.0E+04 TCID50/ml | more than 1E+08 pfu/ml | ~1 log
